Measured values reported in patent publication US9670221B2, “Furopyridines as bromodomain inhibitors” (GlaxoSmithKline Intellectual Property (No.2) Limited, priority 2013, dated 2017).
Counter-ions that a name gives are not always drawn.

Legend:
BRD4 BD1 = biological target: T1, BRD4 BD1 (Homo sapiens, UniProt O60885, Y390A); assay: TR-FRET binding assay, BRD4 BD1 (mutant protein); conditions: BRD4 (1-477) mutant, 10 nM protein, read-out: pIC50 in the BRD4 BD1 assay (converted)
T1 construct: BRD4 (1-477) (Y97A) and (Y390A); made in house; host or cells: E. coli (pET15b vector)
Protocol: Time Resolved Fluorescence Resonance Energy Transfer (TR-FRET) Assay
(§1) Binding was assessed using a time resolved fluorescent resonance energy transfer binding assay. This utilises a 6 His purification tag at the N-terminal of the proteins as an epitope for an anti-6 His antibody labeled with Europium chelate (PerkinElmer AD0111) allowing binding of the Europium to the proteins which acts as the donor fluorophore. A small molecule, high affinity binder of the bromodomains BRD2, BRD3, BRD4 and BRDT has been labeled with Alexa Fluor647 (Reference Compound X) and this acts as the acceptor in the FRET pair.
Assay Principle: In the absence of a competing compound, excitation of the Europium causes the donor to emit at λ618 nm which excites the Alexa labelled bromodomain binding compound leading to an increased energy transfer that is measurable at λ647 […]. In the presence of a sufficient concentration of a compound that can bind these proteins, the interaction is disrupted leading to a quantifiable drop in fluorescent resonance energy transfer.
(§2) The binding of the compounds of formula (I) to Bromodomains BRD2, BRD3, BRD4 and BRDT was assessed using mutated proteins to detect differential binding to either Binding Domain 1 (BD1) or Binding Domain 2 (BD2) on the bromodomain. These single residue mutations in the acetyl lysine binding pocket greatly lower the affinity of the fluoroligand (Reference Compound X) for the mutated domain (>1000 fold selective for the non-mutated domain). Therefore in the final assay conditions, binding of the fluoroligand to the mutated domain cannot be detected and subsequently the assay is suitable to determine the binding of compounds to the single non-mutated bromodomain.
Protein production: Recombinant Human Bromodomains [(BRD2 (1-473) (Y113A) and (Y386A), BRD3 (1-435) (Y73A) and (Y348A) BRD4 (1-477) (Y97A) and (Y390A) and BRDT (1-397) (Y66A) and (Y309A)] were expressed in E. coli cells (in pET15b vector for BRD2/3/4 and in pET28a vector for BRDT) with a 6-His tag at the N-terminal. The His-tagged Bromodomain pellet was resuspended in 50 mM HEPES (pH7.5), 300 mM NaCl, 10 mM imidazole & 1 μl/mL protease inhibitor cocktail and extracted from the E. coli cells using sonication and purified using a nickel sepharose high performance column, the proteins were washed and then eluted with a linear gradient of 0-500 mM imidazole with buffer 50 mM HEPES (pH7.5), 150 mM NaCl, 500 mM imidazole, over 20 column volumes. Final purification was completed by Superdex 200 prep grade size exclusion column. Purified protein was stored at −80° C. in 20 mM HEPES pH 7.5 and 100 mM NaCl. Protein identity was confirmed by peptide mass fingerprinting and predicted molecular weight confirmed by mass spectrometry.
Protocol for Bromodomain BRD2, 3, 4 and T, BD1^+BD2 mutant assays: All assay components were dissolved in buffer composition of 50 mM HEPES pH7.4, 50 mM NaCl, 5% Glycerol, 1 mM DTT and 1 mM CHAPS. The final concentration of bromodomain proteins were 10 nM and the Alexa Fluor647 ligand was at Kd. These components were premixed and 5 μl of this reaction mixture was added to all wells containing 50 nl of various concentrations of test compound or DMSO vehicle (0.5% DMSO final) in Greiner 384 well black low volume microtitre plates and incubated in dark for 30 minutes at room temperature. 5 μl of detection mixture containing 1.5 nM final concentration anti-6His Europium chelate was added to all wells and a further dark incubation of at least 30 minutes was performed. Plates were then read on the Envision platereader, (λex=317 nm, donor λem=615 nm; acceptor λem=665 nm; Dichroic LANCE dual). Time resolved fluorescent intensity measurements were made at both emission wavelengths and the ratio of acceptor/donor was calculated and used for data analysis. All data was normalized to the mean of 16 high (inhibitor control—Example 11 of WO 2011/054846A1) and 16 low (DMSO) control wells on each plate. […]

[1] = tested on: Bromodomains BRD2, BRD3, BRD4 and BRDT (BD1/BD2 single residue mutants); assay: Binding of the fluoroligand to mutated versus non-mutated bromodomain; set-up: species or system Human; conditions: single residue mutations in the acetyl lysine binding pocket
Protocol: as §1
as §2, with “non-mutated bromodomain. […]” for “non-mutated bromodomain.”

IC50 (BRD4 BD1) | SMILES | selectivity of the fluoroligand for the non-mutated domain over the mutated domain [1]
≤ 0.1 µM | C[C@@H]1CN(S(C)(=O)=O)CCN1Cc1cc2c(=O)n(C)cc(-c3ccncc3OCC(F)F)c2o1 [Example 74, (R)-7-(3-(2,2-difluoroethoxy)pyridin-4-yl)-5-methyl-2-((2-methyl-4-(methylsulfonyl)piperazin-1-yl)methyl)furo[3,2-c]pyridin-4(5H)-one] | 
≤ 0.1 µM | CN1CCN(Cc2cc3c(=O)n(C)cc(-c4ccncc4OCC4CC4)c3o2)CC1=O [Example 76, 7-(3-(cyclopropylmethoxy)pyridin-4-yl)-5-methyl-2-((4-methyl-3-oxopiperazin-1-yl)methyl)furo[3,2-c]pyridin-4(5H)-one hydrochloride] | 
≤ 0.1 µM | COC(C)COc1cnccc1-c1cn(C)c(=O)c2cc(CN3CCN(S(C)(=O)=O)C[C@H]3C)oc12 (stereo partly drawn) [Example 78, 7-(3-(2-methoxypropoxy)pyridin-4-yl)-5-methyl-2-(((R)-2-methyl-4-(methylsulfonyl)piperazin-1-yl)methyl)furo[3,2-c]pyridin-4(5H)-one] | 
≤ 0.1 µM | CC(=O)Nc1cc(-c2cn(C)c(=O)c3cc(CN4CCNC(=O)CC4)oc23)ccn1 [Example 82, N-(4-(5-methyl-4-oxo-2-((5-oxo-1,4-diazepan-1-yl)methyl)-4,5-dihydrofuro[3,2-c]pyridin-7-yl)pyridin-2-yl)acetamide] | 
≤ 0.1 µM | CC(=O)Nc1cc(-c2cn(C)c(=O)c3cc(CN4CCS(=O)(=O)CC4)oc23)ccn1 [Example 87, N-(4-(2-((1,1-dioxidothiomorpholino)methyl)-5-methyl-4-oxo-4,5-dihydrofuro[3,2-c]pyridin-7-yl)pyridin-2-yl)acetamide] | 
≤ 0.1 µM | CC(=O)Nc1cc(-c2cn(C)c(=O)c3cc(CN4CC(C)N(S(C)(=O)=O)CC4C)oc23)ccn1 (stereo not drawn) [Example 96, N-(4-(2-((2,5-dimethyl-4-(methylsulfonyl)piperazin-1-yl)methyl)-5-methyl-4-oxo-4,5-dihydrofuro[3,2-c]pyridin-7-yl)pyridin-2-yl)acetamide] | 
≤ 0.1 µM | CC(=O)Nc1cc(-c2cn(C)c(=O)c3cc(CN4CCC(=O)NCC4C)oc23)ccn1 (stereo not drawn) [Example 100, N-(4-(5-methyl-2-((2-methyl-5-oxo-1,4-diazepan-1-yl)methyl)-4-oxo-4,5-dihydrofuro[3,2-c]pyridin-7-yl)pyridin-2-yl)acetamide] | 
≤ 0.1 µM | CC(=O)Nc1cc(-c2cn(C)c(=O)c3cc(CN4CCS(=O)(=O)CC4C)oc23)ccn1 (stereo not drawn) [Example 102, N-(4-(5-methyl-2-((3-methyl-1,1-dioxidothiomorpholino)methyl)-4-oxo-4,5-dihydrofuro[3,2-c]pyridin-7-yl)pyridin-2-yl)acetamide] | 
≤ 0.1 µM | CC(=O)Nc1cc(-c2cn(C)c(=O)c3cc(CN4CCN(S(C)(=O)=O)[C@@H](C)C4)oc23)ccn1 [Example 108, (S)—N-(4-(5-methyl-2-((3-methyl-4-(methylsulfonyl)piperazin-1-yl)methyl)-4-oxo-4,5-dihydrofuro[3,2-c]pyridin-7-yl)pyridin-2-yl)acetamide] | 

Continued, molecule first:

SMILES | IC50 (BRD4 BD1) | selectivity of the fluoroligand for the non-mutated domain over the mutated domain [1]
Cl.[2H]C([2H])([2H])n1cc(-c2ccnc(NC(C)=O)c2)c2oc(CN3CCN(S(C)(=O)=O)C[C@H]3C)cc2c1=O [Example 62, (R)-N-(4-(5-(^2H3)methyl-2-((2-methyl-4-(methylsulfonyl)piperazin-1-yl)methyl)-4-oxo-4,5-dihydrofuro[3,2-c]pyridin-7-yl)pyridin-2-yl)acetamide] | ≤ 0.1 µM | 
C[C@@H]1CN(S(C)(=O)=O)CCN1Cc1cc2c(=O)n(C)cc(-c3cccc(NC(=O)CCCCN)c3)c2o1 [Example 64, (R)-5-amino-N-(3-(5-methyl-2-((2-methyl-4-(methylsulfonyl)piperazin-1-yl)methyl)-4-oxo-4,5-dihydrofuro[3,2-c]pyridin-7-yl)phenyl)pentanamide hydrochloride] | ≤ 0.1 µM | 
CC(=O)Nc1cc(-c2cn(C)c(=O)c3cc(C(C)(C)N4CCN(S(C)(=O)=O)CC4)oc23)ccn1 [Example 65, N-(4-(5-methyl-2-(2-(4-(methylsulfonyl)piperazin-1-yl)propan-2-yl)-4-oxo-4,5-dihydrofuro[3,2-c]pyridin-7-yl)pyridin-2-yl)acetamide] | ≤ 0.1 µM | 
COCCOc1cnccc1-c1cn(C)c(=O)c2cc(CN3CCN(S(C)(=O)=O)C[C@H]3C)oc12 [Example 66, (R)-7-(3-(2-methoxyethoxy)pyridin-4-yl)-5-methyl-2-((2-methyl-4-(methylsulfonyl)piperazin-1-yl)methyl)furo[3,2-c]pyridin-4(5H)-one] | ≤ 0.1 µM | 
Cn1cc(-c2ccc(C(=O)O)cc2OCC2CC2)c2oc(CN3CCN(S(C)(=O)=O)CC3)cc2c1=O [Example 67, 3-(cyclopropylmethoxy)-4-(5-methyl-2-((4-(methylsulfonyl)piperazin-1-yl)methyl)-4-oxo-4,5-dihydrofuro[3,2-c]pyridin-7-yl)benzoic acid] | ≤ 0.01 µM | 
CCNC(=O)c1ccc(-c2cn(C)c(=O)c3cc(CN4CCN(S(C)(=O)=O)CC4)oc23)c(OCC2CC2)c1 [Example 68, 3-(cyclopropylmethoxy)-N-ethyl-4-(5-methyl-2-((4-(methylsulfonyl)piperazin-1-yl)methyl)-4-oxo-4,5-dihydrofuro[3,2-c]pyridin-7-yl)benzamide] | ≤ 0.1 µM | 
C[C@@H]1CN(S(C)(=O)=O)CCN1Cc1cc2c(=O)n(C)cc(-c3ccncc3OCC3CCOC3)c2o1 (stereo partly drawn) [Example 69, 5-methyl-2-(((R)-2-methyl-4-(methylsulfonyl)piperazin-1-yl)methyl)-7-(3-((tetrahydrofuran-3-yl)methoxy)pyridin-4-yl)furo[3,2-c]pyridin-4(5H)-one] | ≤ 0.1 µM | 
C[C@@H]1CN(S(C)(=O)=O)CCN1Cc1cc2c(=O)n(C)cc(-c3ccncc3OCC3CCCO3)c2o1 (stereo partly drawn) [Example 70, 5-methyl-2-(((R)-2-methyl-4-(methylsulfonyl)piperazin-1-yl)methyl)-7-(3-((tetrahydrofuran-2-yl)methoxy)pyridin-4-yl)furo[3,2-c]pyridin-4(5H)-one] | ≤ 0.1 µM | 
Cn1cc(-c2ccncc2OCC2CC2)c2oc(CN3CCNC(=O)C3)cc2c1=O [Example 71, 7-(3-(cyclopropylmethoxy)pyridin-4-yl)-5-methyl-2-((3-oxopiperazin-1-yl)methyl)furo[3,2-c]pyridin-4(5H)-one hydrochloride] | ≤ 0.1 µM | 
C[C@@H]1CN(S(C)(=O)=O)CCN1Cc1cc2c(=O)n(C)cc(-c3ccncc3OCCF)c2o1 [Example 72, (R)-7-(3-(2-fluoroethoxy)pyridin-4-yl)-5-methyl-2-((2-methyl-4-(methylsulfonyl)piperazin-1-yl)methyl)furo[3,2-c]pyridin-4(5H)-one] | ≤ 0.1 µM | 
C[C@@H]1CN(S(C)(=O)=O)CCN1Cc1cc2c(=O)n(C)cc(-c3ccncc3OC3CC3)c2o1 [Example 73, (R)-7-(3-cyclopropoxypyridin-4-yl)-5-methyl-2-((2-methyl-4-(methylsulfonyl)piperazin-1-yl)methyl)furo[3,2-c]pyridin-4(5H)-one] | ≤ 0.1 µM | 
COc1ccc2c(c1)C(c1ccc(Cl)cc1)=N[C@@H](CC(=O)NCCCCCNC(=O)CCCCCC1(C)/C(=C/C=C/C=C/C3=[N+](CCCCS(=O)(=O)O)c4ccc(S(=O)(=O)O)cc4C3(C)C)N(CCCCS(=O)(=O)[O-])c3ccc(S(=O)(=O)O)cc31)c1nnc(C)n1-2 (stereo partly drawn) [Reference Compound X] |  | > 1000 fold
